Drawing on US20230106032A1, “IMIDAZOTRIAZINES ACTING ON CANCER VIA INHIBITION OF CDK12” (Bayer Aktiengesellschaft, priority 2020, published 2023), this text covers IC50 and DC50 for 14 compounds.

The target of one assay is T1, CDK2/CycE (Homo sapiens, UniProt P24941).
T1 construct: purchased ProQinase GmbH (Freiburg, Germany); host or cells: insect cells (Sf9)
The assay is described as follows: CDK2/CycE kinase assay (TR-FRET, 2 mM ATP). In kind it is biochemical. The note with it: read-out: CDK2/CyclinE, 2 mM ATP (high ATP) IC50-[mol/l] (median). From the text: CDK2/CycE-inhibitory activity of compounds of the present invention was quantified employing the CDK2/CycE TR-FRET assay as described in the following paragraphs.
Recombinant fusion proteins of GST and human CDK2 and of GST and human CycE, expressed in insect cells (Sf9) and purified by Glutathion-Sepharose affinity chromatography, were purchase from ProQinase GmbH (Freiburg, Germany). As substrate for the kinase reaction biotinylated peptide biotin-Ttds-YISPLKSPYKISEG (C-terminus in amid form) was used which can be purchased e.g. form the company JERINI peptide technologies (Berlin, Germany).
For the assay 50 nanoL of a 100 fold concentrated solution of the test compound in DMSO was pipetted into a black low volume 384 well microtiter plate or a black 1536 well microtiter plate (both Greiner Bio-One, Frickenhausen, Germany), 2 microL of a solution of CDK2/CycE in aqueous assay buffer [50 millimol/L Tris/HCl pH 8.0, 10 millimol/L MgCl2, 1.0 millimol/L dithiothreitol, 0.1 millimol/L sodium ortho-vanadate, 0.01% (v/v) Nonidet-P40 (Sigma)] were added and the mixture was incubated for 15 min at 22° C. to allow pre-binding of the test compounds to the enzyme before the start of the kinase reaction. Then the kinase reaction was started by the addition of 3 microL of a solution of adenosine-tri-phosphate (ATP, 3.33 millimol/L=> final conc. in the 5 microL assay volume is 2 millimol/L) and substrate (1.25 micromol/L=> final conc. in the 5 microL assay volume is 0.75 micromol/L) in assay buffer and the resulting mixture was incubated for a reaction time of 25 min at 22° C. The concentration of CDK2/CycE was adjusted depending of the activity of the enzyme lot and was chosen appropriate to have the assay in the linear range, typical concentrations were in the range of 10 ng/ml. The reaction was stopped by the addition of 3 microL of a solution of TR-FRET detection reagents (0.333 micromol/L streptavidine-XL665 [Cisbio Bioassays, Codolet, France] and 1.67 nanomol/L anti-RB(pSer807/pSer8l 1)-antibody from BD Pharmingen [#558389] and 2 nanomol/L LANCE EU-W1024 labeled anti-mouse IgG antibody [Perkin-Elmer, product no. AD0077, as an alternative a Terbium-cryptate-labeled anti-mouse IgG antibody from Cisbio Bioassays can be used]) in an aqueous EDTA-solution (167 millimol/L EDTA, 0.2% (w/v) bovine serum albumin in 100 millimol/L HEPES pH 7.5).
The resulting mixture was incubated 1 h at 22° C. to allow the formation of complex between the phosphorylated biotinylated peptide and the detection reagents. Subsequently the amount of phosphorylated substrate was evaluated by measurement of the resonance energy transfer from the Eu-chelate to the streptavidine-XL. Therefore, the fluorescence emissions at 620 nm and 665 nm after excitation at 350 nm was measured in a TR-FRET reader, e.g. a Pherastar (BMG Labtechnologies, Offenburg, Germany) or a Viewlux (Perkin-Elmer). The ratio of the emissions at 665 nm and at […] was taken as the measure for the amount of phosphorylated substrate. The data were normalised (enzyme reaction without inhibitor=0% inhibition, all other assay components but no enzyme=100% inhibition).

Assay [1] has as its system BRCA1 mRNA expression in MDA-MB-231 cells. The assay is described as follows: qRT-PCR assay: inhibition of BRCA1 mRNA expression in MDA-MB-231 cells. The format is cell-based. The note with it: Homo sapiens, 24 h exposure, normalised to GAPDH, read-out: RTqPCR-MDA-MB-231 IC50 [mol/l] BRCA1 (median). How it is done:
Tissue cultured human MDA-MB-231 human breast cancer cells were plated in 500 microL per well at 200,000 cells/well in a 24 well microtiter plate. After 24 h, the cells were exposed continuously for 24 h to test substances (substances were added with Tecan HP D300 Dispenser). RNA was prepared using Qiagen RNeasy MiniKit (#74106), RNA was quantified using a NanoDrop Equipment, and 600 nano gamms of RNA was converted to cDNA using a SuperScript VILO kit (Thermofisher #11755050) followed by qPCR amplification. BRCA1 and ATR gene expression was measured by RT-qPCR and normalised to GAPDH housekeeping gene expression. qPCR primer sets have been purchased from Thermo Fisher Scientific/Applied Biosystems: BRCA1, #Hs 01556193; ATR, #Hs 00992123; GAPDH, #Hs 03929097.

A further assay concerns CYCLIN K. The assay is described as follows: CYCLIN K nuclear protein level: immunofluorescence/high content analysis in CAL-120 cells. The note with it: 24 h, nuclear CCNK staining, read-out: CYCLIN K degradation IF, DC50-[mol/l] (median). In kind it is cell-based, human. How it is done:
In the context of the present invention, the term “DC50 Cyclin K” refers to the DC50 values obtained according to the assay described in this section (7) herein below, i.e. the DC50 values for the degradation of Cyclin K.
CAL-120 human breast cancer cells (DSMZ ACC 459) are seeded in 1536-well microtiter plates (800 cells per well) containing 50 nanoL of compounds in Dose-Response. Control wells received DMSO or Reference Example 1. Plates are then incubated for 24 h at 37° C. in an humidified incubator and fixed with 4% PFA for 10 min. Then immunofluorescence (IF) against CYCLIN K (ThermoFisher Scientific CCNK Antibody #PA5-85020, rabbit, 1:200 dilution) is performed using standard IF protocols. Cells are then stained with Hoechst 33342 (Life Technologies, H-1399, 0.1 microg/ml) and imaged on an automated confocal microscopy system (e.g. Perkin Elmer Opera Phenix). Nuclear and cytoplasmic intensity as well as the nuclear/cytoplasmic intensity ratio is determined by automated image analysis using custom generated scripts (MetaXpress). Data is then transferred to Genedata Screener software, normalized to DMSO and control and DC50 values (degrading concentration to achieve 50% reduction of nuclear CCNK staining intensity relative to controls) are reported.

Some results are limits rather than exact numbers.

Consider `C[C@@H]1CN(c2nc(NCc3nc4c(F)c(F)ccc4[nH]3)c3ncc(Br)n3n2)C[C@H](C)O1` [Example 5, 7-bromo-N-[(4,5-difluoro-1H-benzimidazol-2-yl)methyl]-2-[rel-(2R,6S)-2,6-dimethylmorpholin-4-yl]imidazo[2,1-f][1,2,4]triazin-4-amine], for which the IC50 on CDK2/CycE was over 20000 nM; in assay [1], 6.39 nM. The DC50 with CYCLIN K was 1.16 nM.

Regarding `Fc1ccc2[nH]c(CNc3nc(N4CCNCC4)nn4c(Br)cnc34)nc2c1F` [Example 10, 7-bromo-N-[(4,5-difluoro-1H-benzimidazol-2-yl)methyl]-2-(piperazin-1-yl)imidazo[2,1-f][1,2,4]triazin-4-amine], the IC50 at CDK2/CycE was over 20000 nM; in assay [1], 0.548 nM. For the same compound, the DC50 with CYCLIN K turned out to be 0.0632 nM.

On to `COc1cccc2[nH]c(CNc3nc(N4CCOCC4)nn4c(Br)cnc34)nc12` [Example 13, 7-bromo-N-[(4-methoxy-1H-benzimidazol-2-yl)methyl]-2-(morpholin-4-yl)imidazo[2,1-f][1,2,4]triazin-4-amine], for which the IC50 at CDK2/CycE stood at 5740 nM; in assay [1] it was 8.06 nM. In addition, the DC50 in the assay on CYCLIN K came out at 1.57 nM.

On to `C[C@@H]1CN(c2nc(NCc3nc4ccccc4[nH]3)c3ncc(Br)n3n2)C[C@H](C)N1` [Example 9, N-[(1H-benzimidazol-2-yl)methyl]-7-bromo-2-[rel-(3R,5S)-3,5-dimethylpiperazin-1-yl]imidazo[2,1-f][1,2,4]triazin-4-amine], for which the IC50 was over 20000 nM at CDK2/CycE and 3.52 nM in assay [1]. Besides, the DC50 in the assay with CYCLIN K amounted to 0.111 nM.

In the case of `Fc1cccc(-c2cnc3c(NCc4nc5ccccc5[nH]4)nc(N4CCOCC4)nn23)c1` [Example 3, N-[(1H-benzimidazol-2-yl)methyl]-7-(3-fluorophenyl)-2-(morpholin-4-yl)imidazo[2,1-f][1,2,4]triazin-4-amine], the IC50 on CDK2/CycE is over 20000 nM; in assay [1], over 100 nM. Besides, the DC50 in the assay with CYCLIN K came out at 23.9 nM.

On to `CN1CCN(c2nc(NCc3nc4cc(F)ccc4[nH]3)c3ncc(Br)n3n2)CC1` [Example 21, 7-bromo-N-[(5-fluoro-1H-benzimidazol-2-yl)methyl]-2-(4-methylpiperazin-1-yl)imidazo[2,1-f][1,2,4]triazin-4-amine], for which the values for the IC50 (at CDK2/CycE; in assay [1]) were over 20000 nM and 3.11 nM, respectively. Also, the DC50 in the assay on CYCLIN K was 0.227 nM.

`COc1cccc2[nH]c(CNc3nc(N4CCNCC4)nn4c(Br)cnc34)nc12` [Example 15, 7-bromo-N-[(4-methoxy-1H-benzimidazol-2-yl)methyl]-2-(piperazin-1-yl)imidazo[2,1-f][1,2,4]triazin-4-amine]: the IC50 came out at 14200 nM at CDK2/CycE and 2.36 nM in assay [1]. In addition, the DC50 with CYCLIN K turned out to be 1.41 nM.

Consider `C[C@@H]1CN(c2nc(NCc3nc4ccccc4[nH]3)c3ncc(Br)n3n2)C[C@H](C)O1` [Example 4, N-[(1H-benzimidazol-2-yl)methyl]-7-bromo-2-[rel-(2R,6S)-2,6-dimethylmorpholin-4-yl]imidazo[2,1-f][1,2,4]triazin-4-amine], for which the values for the IC50 (on CDK2/CycE; in assay [1]) were over 20000 nM and 25.9 nM, respectively. Further, in the assay with CYCLIN K, the DC50 was 1.14 nM.

`CN1CCN(c2nc(NCc3nc4c(F)cccc4[nH]3)c3ncc(Br)n3n2)CC1` [Example 23, 7-bromo-N-[(4-fluoro-1H-benzimidazol-2-yl)methyl]-2-(4-methylpiperazin-1-yl)imidazo[2,1-f][1,2,4]triazin-4-amine]: the IC50 at CDK2/CycE was over 20000 nM; in assay [1] it was 3.12 nM. For the same compound, the DC50 in the assay with CYCLIN K was determined as 0.863 nM.

Regarding `Brc1cnc2c(NCc3nc4ccccc4[nH]3)nc(N3CCOCC3)nn12` [Example 1, N-[(1H-benzimidazol-2-yl)methyl]-7-bromo-2-(morpholin-4-yl)imidazo[2,1-f][1,2,4]triazin-4-amine], the IC50 on CDK2/CycE was 11700 nM; in assay [1], 10 nM. Besides, the DC50 in the assay with CYCLIN K is 0.876 nM.

With `C[C@@H]1CN(c2nc(NCc3nc4c(F)c(F)ccc4[nH]3)c3ncc(C(F)(F)F)n3n2)C[C@H](C)N1` [Example 29, N-[(4,5-difluoro-1H-benzimidazol-2-yl)methyl]-2-[rel-(3R,5S)-3,5-dimethylpiperazin-1-yl]-7-(trifluoromethyl)imidazo[2,1-f][1,2,4]triazin-4-amine], the IC50 was over 20000 nM on CDK2/CycE and 1.05 nM in assay [1]. In addition, in the assay with CYCLIN K, the DC50 came out at 0.267 nM.

Turning to `CN1CCN(c2nc(NCc3nc4c(F)c(F)ccc4[nH]3)c3ncc(C(F)(F)F)n3n2)CC1` [Example 28, N-[(4,5-difluoro-1H-benzimidazol-2-yl)methyl]-2-(4-methylpiperazin-1-yl)-7-(trifluoromethyl)imidazo[2,1-f][1,2,4]triazin-4-amine], the IC50 is over 20000 nM on CDK2/CycE and 0.242 nM in assay [1]. In addition, the DC50 in the assay with CYCLIN K amounted to 0.363 nM.

Consider `FC(F)(F)c1cnc2c(NCc3nc4ccccc4[nH]3)nc(N3CCOCC3)nn12` [Example 26, N-[(1H-benzimidazol-2-yl)methyl]-2-(morpholin-4-yl)-7-(trifluoromethyl)imidazo[2,1-f][1,2,4]triazin-4-amine], for which the IC50 at CDK2/CycE was over 19400 nM; in assay [1], 3.64 nM. For the same compound, the DC50 in the assay with CYCLIN K turned out to be 0.552 nM.

In the case of `C[C@@H]1CN(c2nc(NCc3nc4ccccc4[nH]3)c3ncc(C(F)(F)F)n3n2)C[C@H](C)N1.O=CO` [Example 24, N-[(1H-benzimidazol-2-yl)methyl]-2-[rel-(3R,5S)-3,5-dimethylpiperazin-1-yl]-7-(trifluoromethyl)imidazo[2,1-f][1,2,4]triazin-4-amine Formate (1/1)], the IC50 on CDK2/CycE was over 20000 nM; in assay [1] it was 1.1 nM. The DC50 in the assay with CYCLIN K was 0.0613 nM.
